The text below walks through data of PubChem BioAssay (NCI).

Test systems include SF-295 CNS; NCI-H522 lung; CCRF-CEM leukemia; NCI-H226 lung; A549 NSCLC; SR leukemia; SW-620 colon; SF-268 CNS; OVCAR-8 ovarian; OVCAR-4 ovarian; KM12 colon; RXF 393 renal; SN12C renal; UO-31 renal.
Holding throughout (assay): NCI anticancer screen, dose series, 48 h

SMILES strings stand for the structures.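 Results reflect a 48-hour exposure of cells in 96-well plates to compound at five concentrations. The concentration for full growth arrest is given as TGI.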

In the case of `O=S(=O)(c1ccccc1)n1cnc(CCc2ccccc2)n1`, the TGI with SF-295 CNS, with NCI-H522 lung, in the experiment on CCRF-CEM leukemia, with NCI-H226 lung, in the experiment on A549 NSCLC and with SR leukemia was over 100 µM throughout. For the same molecule, the TGI in the experiment on SW-620 colon, in the experiment on SF-268 CNS, with OVCAR-8 ovarian, with OVCAR-4 ovarian, in the experiment with KM12 colon and in the experiment on RXF 393 renal was over 100 µM throughout. In addition, the TGI with SN12C renal and in the experiment on UO-31 renal was over 100 µM each time.
In the case of `S=C1NCCN1C(=S)NC1CCCCC1`, the TGI in the experiment with SF-295 CNS was over 100 µM; in the experiment on NCI-H522 lung, 69 µM; in the experiment on CCRF-CEM leukemia, over 100 µM; in the experiment with NCI-H226 lung it was 75.2 µM; in the experiment with A549 NSCLC, 99.1 µM; with SR leukemia it was over 100 µM. Further, the TGI with SW-620 colon is over 100 µM; in the experiment on SF-268 CNS it was over 100 µM; with OVCAR-8 ovarian, over 100 µM; in the experiment with OVCAR-4 ovarian, 45.5 µM; in the experiment on KM12 colon it was 65.3 µM; in the experiment on RXF 393 renal, 28.6 µM. Also, the TGI in the experiment on SN12C renal was over 100 µM; in the experiment on UO-31 renal it was 81.6 µM.
In the case of `CC(=O)N1N=C(c2ccc3ccccc3c2O)CC1c1ccc(Cl)cc1Cl` (configuration not stated), the TGI in the experiment on SF-295 CNS, in the experiment on NCI-H522 lung, in the experiment with CCRF-CEM leukemia, with NCI-H226 lung, in the experiment on A549 NSCLC and in the experiment with SR leukemia was over 100 µM each time. In addition, the TGI in the experiment on SW-620 colon is over 100 µM; in the experiment with SF-268 CNS it was 93.1 µM; in the experiment with OVCAR-8 ovarian, over 100 µM; in the experiment on OVCAR-4 ovarian it was over 100 µM; with KM12 colon, over 100 µM; with RXF 393 renal it was over 100 µM. Moreover, the TGI with SN12C renal and with UO-31 renal was over 100 µM each time.
As for `CCn1c(SCC(=O)NNC(=S)Nc2ccc(Cl)cc2)nc2ccccc2c1=O`, the TGI in the experiment with SF-295 CNS, with NCI-H522 lung, with CCRF-CEM leukemia, in the experiment on NCI-H226 lung, in the experiment on A549 NSCLC and in the experiment on SR leukemia was over 100 µM each time. In addition, the TGI in the experiment with SW-620 colon, in the experiment on SF-268 CNS, with OVCAR-8 ovarian, in the experiment with OVCAR-4 ovarian, in the experiment on KM12 colon and in the experiment with RXF 393 renal was over 100 µM throughout. For the same molecule, the TGI in the experiment with SN12C renal and in the experiment on UO-31 renal was over 100 µM throughout.
Consider `CC(=O)[C@H]1[C@@H](OCc2ccccc2)O[N+]([O-])=C(C)[C@@H]1c1ccccc1`, for which the TGI in the experiment with SF-295 CNS is over 100 µM; in the experiment with NCI-H522 lung, 26.4 µM; in the experiment with CCRF-CEM leukemia, 44.1 µM; with NCI-H226 lung it was over 100 µM; in the experiment on A549 NSCLC it was over 100 µM; in the experiment on SR leukemia, 42 µM. The TGI in the experiment with SW-620 colon is 31.7 µM; in the experiment on SF-268 CNS it was over 100 µM; in the experiment on OVCAR-8 ovarian it was over 100 µM; in the experiment with OVCAR-4 ovarian, over 100 µM; with KM12 colon it was over 100 µM; in the experiment on RXF 393 renal it was 34.2 µM. Moreover, the TGI with UO-31 renal is 40.2 µM.
For the molecule `NC(CCC(=O)NC(CSC(=O)N(O)c1ccc(Cl)cc1)C(=O)NCC(=O)O)C(=O)O` (configuration not stated), the TGI in the experiment with SF-295 CNS, with NCI-H522 lung, in the experiment with CCRF-CEM leukemia, with NCI-H226 lung, with A549 NSCLC and in the experiment on SR leukemia was over 0.5 µM each time. In addition, the TGI in the experiment with SW-620 colon, in the experiment on SF-268 CNS, in the experiment on OVCAR-8 ovarian, with OVCAR-4 ovarian, in the experiment with KM12 colon and with RXF 393 renal was over 0.5 µM throughout. Moreover, the TGI in the experiment with SN12C renal and in the experiment on UO-31 renal was over 0.5 µM in each case.
In the case of `Clc1cc2nnn(C3CCCCO3)c2cc1Cl` (configuration not stated), the TGI in the experiment on SF-295 CNS, in the experiment on NCI-H522 lung, in the experiment with CCRF-CEM leukemia, in the experiment with NCI-H226 lung, with A549 NSCLC and in the experiment on SR leukemia was over 100 µM throughout. For the same molecule, the TGI in the experiment on SF-268 CNS, in the experiment on OVCAR-8 ovarian, in the experiment on OVCAR-4 ovarian, with KM12 colon, in the experiment with RXF 393 renal and in the experiment on SN12C renal was over 100 µM in each case. Further, the TGI with UO-31 renal is over 100 µM.
Take `O=C(O)c1cccc(S(=O)(=O)NN2C(=O)CSC2c2ccccc2Cl)c1` (configuration not stated): the TGI with SF-295 CNS, with NCI-H522 lung, in the experiment on CCRF-CEM leukemia, in the experiment on NCI-H226 lung, in the experiment with A549 NSCLC and with SR leukemia was over 100 µM throughout. Further, the TGI in the experiment with SW-620 colon, in the experiment with SF-268 CNS, in the experiment on OVCAR-8 ovarian, in the experiment on KM12 colon, in the experiment with RXF 393 renal and with SN12C renal was over 100 µM each time. Moreover, the TGI in the experiment on UO-31 renal was over 100 µM.
As to `Cc1ccc(C)c(NC(=O)/C(=N\N)C(c2cnc3ccc([N+](=O)[O-])cc3n2)[N+](=O)[O-])c1` (configuration not stated), the TGI was over 100 µM in the experiment with SF-295 CNS; over 100 µM in the experiment with NCI-H522 lung; 25.9 µM in the experiment on CCRF-CEM leukemia; over 100 µM with NCI-H226 lung; over 100 µM in the experiment on A549 NSCLC; over 100 µM in the experiment on SR leukemia. Moreover, the TGI in the experiment on SW-620 colon is over 100 µM; with SF-268 CNS, over 100 µM; in the experiment with OVCAR-8 ovarian, over 100 µM; in the experiment on OVCAR-4 ovarian, 62.9 µM; in the experiment on KM12 colon it was over 100 µM; in the experiment with RXF 393 renal, over 100 µM. The TGI with SN12C renal and in the experiment on UO-31 renal was over 100 µM in each case.
With `CCOC(=O)c1ncn2c1[nH]c(=O)c1ccccc12`, the TGI in the experiment on SF-295 CNS, with NCI-H522 lung, in the experiment with CCRF-CEM leukemia, in the experiment on NCI-H226 lung, in the experiment on A549 NSCLC and in the experiment on SR leukemia was over 100 µM each time. For the same molecule, the TGI with SW-620 colon, in the experiment on SF-268 CNS, in the experiment on OVCAR-8 ovarian, with OVCAR-4 ovarian, with KM12 colon and with RXF 393 renal was over 100 µM each time. In addition, the TGI in the experiment on SN12C renal and in the experiment with UO-31 renal was over 100 µM throughout.
